Series [1] deals with Human brain endothelial cells (HBEC-5i). The experiment in a line: Western blot of HBEC-5i cell lysates after peptide treatment. The series is classed as cell-based. To be noted: 24 hrs, Aβ peptides 10 μM, Ang-2 200 ng/ml, VEGFA-165 100 ng/ml, vs PBS-treated cells.
Procedure: Human brain endothelial cells, HBEC-5i (ATCC® CRL-3245™) were cultured on 0.1% gelatin coated tissue culture plates in DMEM-F12 media (Gibco; cat. #10565-018) supplemented by 10% heat-inactivated fetal bovine serum (FBS) (Gibco; cat. #A31607-01) and 40 μg/ml endothelial growth supplement (Sigma-Aldrich; cat. #E2759). Cells were grown until they reached 70% confluency and then used for experiments.
Cell culture: Human brain endothelial cells were grown in 10 cm tissue culture plates. […] After the treatment, the medium was removed, and cells were washed with PBS and then lysed with RIPA buffer that contained protease and phosphatase inhibitors. These cells were then used to analyze different proteins of interest.
Immunoblotting analysis and co-immunoprecipitation: For western blot analysis, the fractional homogenate samples were prepared with Dithiothreitol (DTT) in the sample buffer (100 mM Tris-Cl (pH 6.8), 4% (w/v) SDS, 0.2% (w/v) bromophenol blue, 20% (v/v) glycerol and 200 mM DTT). Homogenates were electrophoresed and immunoblotted with indicated antibodies. […] The proteins in the eluate were resolved on the acrylamide gel according to standard practices. […] The signal intensities were imaged by using the Odyssey infrared image system (LICOR), and relative levels of immunoreactivity were analyzed by the Image Studio Lite software.
The nature of a further series: physchem. To be noted: 100% DMSO, organic solvent or mixture.
The subject of series [2] is Tg2576 AD model mice and WT (B6/SJL) littermates. The experiment in a line: Spontaneous alternation (Y-maze). The series is classed as in vivo, mouse. The following applies: drug-treated Tg2576 mice, 1-month treatment; mean±standard deviation. Here is the method: Spontaneous alternation (Y-maze): The test for novelty exploration using spatial and working memory was conducted using a symmetrical Y-maze with a grey steel bottom plate and grey Perspex® walls (Stoelting Co, Wood Dale, Ill.). Each arm of the Y-maze was 35 cm long, 5 cm wide, and 10 cm high, and the wall at the end of each arm was identified by a different colour: white, blue or red. The spatial acquisition phase comprised a one-day trial with the mice tracked while moving freely through the three arms of the Y maze during an 8-minute session. The movements were tracked by a computer tracking system (ANY-maze, Stoelting). The performance was gauged by the percentage of alternations that was calculated as the total number of alternations×100/(total number of arm entries−2). Alternation was defined as successive entries into the three arms on overlapping triplet sets. A high percentage of alternation was indicative of sustained cognition, as the animals must remember which arm was entered last to avoid re-entering it.

The test system is the same in series [3]. Kind of series: Contextual fear conditioning. The series is classed as in vivo, mouse. The following applies: 1-month treatment, mean±standard deviation. The protocol:
Contextual Fear Conditioning: The apparatus consisted of a transparent chamber inside an enclosure with an opening in the ceiling to allow video recordings. The chamber consisted of a steel grid floor connected to a shock generator scrambler. The test encompassed two sessions: conditioning and a context test. On the conditioning day, the mice were individually placed in the chamber and allowed to explore freely for 5 minutes during which, at the 180th second, they received a foot shock of 0.50-0.80 mA for 3 seconds through the bars of the floor. 24 hours after conditioning, the mice were individually placed back in the chamber for 4 minutes, this time with no noxious stimuli. The mice were monitored for movement and freezing behaviour was recorded using computer software (Limelight, ActiMetrics, Wilmette, Ill., USA). Exclusion criteria were set for freezing events less than 2 seconds. This test was used to determine associative working memory. We explored the animal's ability to associate an environment with a noxious event that it experienced there. […] Freezing is a species-specific response to fear, which is defined as “the absence of movement except for respiration.” This may last for seconds to minutes depending on the strength of the aversive stimulus and whether the subject is able to recall the shock.

For series [4] the following is noted: mice, 26 weeks of once daily oral gavage administration; cited from earlier work.

Values after ≈ are worked out from the molar mass of the structure shown.

With “Aβ1-42 peptide: Aβ1-42 peptide (NovoPrep synthetic peptide), predominantly found in plaques”, the “expression of VEGFR2” value in series [1] is recorded as “did not exert a similar effect”.

With `CCN(CC)CCNC(=O)c1c(C)[nH]c(/C=C2\C(=O)Nc3ccc(F)cc32)c1C` [Sunitinib], the solubility in “physchem” was found to be 30 mg/mL (≈ 75.3 mM). The molecule also showed a percentage of alternation in series [2] of 49.3±12.1%. In addition, the freezing percentage in series [3] (drug-treated Tg2576 mice) is 10.9±5.8%; in series [3] (drug-treated WT (B6/SJL) mice) it was 25.4±19.4%.

With `CNC(=O)c1ccccc1Sc1ccc2c(/C=C/c3ccccn3)n[nH]c2c1` [Axitinib], the solubility in “physchem” stood at 40 mg/mL (≈ 103 mM). For the same molecule, the “no-observed-adverse-effect-levels (NOAELs)” value in series [4] is listed as less than 10 mg/kg/day. Besides, the freezing percentage in series [3] (drug-treated Tg2576 mice) turned out to be 14.4±7.3%; in series [3] (drug-treated WT (B6/SJL) mice), 17.74±14.4%.

B1: Ang-2 peptide: human Ang-2 peptide (abcam; ab99482), Tie-2 receptor ligand (protein, UniProt O15123 19-496, looked up)
Angiopoietin-2: YNNFRKSMDSIGKKQYQVQHGSCSYTFLLPEMDNCRSSSSPYVSNAVQRDAPLEYDDSVQRLQVLENIMENNTQWLMKLENYIQDNMKKEMVEIQQNAVQNQTAVMIEIGTNLLNQTAEQTRKLTDVEAQVLNQTTRLELQLLEHSLSTNKLEKQILDQTSEINKLQDKNSFLEKKVLAMEDKHIIQLQSIKEEKDQLQVLVSKQNSIIEELEKKIVTATVNNSVLQKQQHDLMETVNNLLTMMSTSNSAKDPTVAKEEQISFRDCAEVFKSGHTTNGIYTLTFPNSTEEIKAYCDMEAGGGGWTIIQRREDGSVDFQRTWKEYKVGFGNPSGEYWLGNEFVSQLTNQQRYVLKIHLKDWEGNEAYSLYEHFYLSSEELNYRIHLKGLTGTAGKISSISQPGNDFSTKDGDNDKCICKCSQMLTGGWWFDACGPSNLNGMYYPQRQNTNKFNGIKWYYWKGSGYSLKATTMMIRPADF
Turning to B1, the “expression of VEGFR2” value in series [1] is “slight increase”.

Source of the values: patent publication US20230210832A1, “METHODS FOR TREATING ALZHEIMER'S DISEASE” (priority 2020, published 2023).
